According to publication PMC7714403 (JCI Insight, 2020):

Assays:
p38a = p38a (Homo sapiens, UniProt Q16539); assay: KiNativ, OCI cells live cell; assay type: cell-based
TLK2 = TLK2 (Homo sapiens, UniProt Q86UE8); assay: KiNativ, OCI cells live cell; assay type: cell-based; conditions: 2 h
[1] = system: FGFR1, FMS, PDGFRb, TYRO3; assay: KiNativ, OCI cells live cell; assay type: cell-based, human; conditions: labeling site Lys1, peptide VAVKMLK
TEC = TEC (Homo sapiens, UniProt P42680); assay: KiNativ, OCI cells live cell; assay type: cell-based; conditions: 2 h, labeling site Activation Loop, peptide […]
Chain of TEC (P42680 whole entry): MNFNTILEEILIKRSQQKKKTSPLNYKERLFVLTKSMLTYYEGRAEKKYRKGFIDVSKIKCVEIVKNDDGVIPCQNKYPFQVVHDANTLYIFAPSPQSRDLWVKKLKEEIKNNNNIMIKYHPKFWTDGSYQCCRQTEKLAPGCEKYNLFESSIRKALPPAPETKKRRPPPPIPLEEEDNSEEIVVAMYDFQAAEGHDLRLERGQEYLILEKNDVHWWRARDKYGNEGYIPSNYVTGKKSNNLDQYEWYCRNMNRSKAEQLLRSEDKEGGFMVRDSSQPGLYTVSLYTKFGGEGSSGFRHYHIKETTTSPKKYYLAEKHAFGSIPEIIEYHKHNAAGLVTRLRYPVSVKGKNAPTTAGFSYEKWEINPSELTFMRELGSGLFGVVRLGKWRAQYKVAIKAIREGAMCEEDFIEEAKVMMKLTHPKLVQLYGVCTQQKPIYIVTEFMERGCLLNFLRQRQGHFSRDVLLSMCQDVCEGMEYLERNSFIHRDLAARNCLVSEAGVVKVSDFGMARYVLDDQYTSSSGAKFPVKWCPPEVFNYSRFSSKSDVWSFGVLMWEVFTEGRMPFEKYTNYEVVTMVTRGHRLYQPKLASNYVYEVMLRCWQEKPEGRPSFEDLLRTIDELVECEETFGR

LYN = LYN (Homo sapiens, UniProt P07948); assay: KiNativ, OCI cells live cell; assay type: cell-based; conditions: 2 h
Chain of LYN (P07948 whole entry): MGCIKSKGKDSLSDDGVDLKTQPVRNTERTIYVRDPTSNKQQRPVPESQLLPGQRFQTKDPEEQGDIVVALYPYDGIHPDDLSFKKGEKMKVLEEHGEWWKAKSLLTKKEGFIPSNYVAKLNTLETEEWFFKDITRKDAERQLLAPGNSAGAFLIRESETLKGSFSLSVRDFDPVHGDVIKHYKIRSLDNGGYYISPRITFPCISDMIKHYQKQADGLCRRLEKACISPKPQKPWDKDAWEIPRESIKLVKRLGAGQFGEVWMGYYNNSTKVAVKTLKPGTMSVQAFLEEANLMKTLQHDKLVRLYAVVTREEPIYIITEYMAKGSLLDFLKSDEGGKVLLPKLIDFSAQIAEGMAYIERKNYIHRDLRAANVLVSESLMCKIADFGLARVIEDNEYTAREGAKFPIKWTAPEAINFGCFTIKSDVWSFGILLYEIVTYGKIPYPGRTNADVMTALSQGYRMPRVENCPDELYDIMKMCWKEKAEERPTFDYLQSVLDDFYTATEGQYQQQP

PKCi = PKCi (Homo sapiens, UniProt P41743); assay: KiNativ, OCI cells live cell; assay type: cell-based; conditions: 2 h
Chain of PKCi (P41743 whole entry): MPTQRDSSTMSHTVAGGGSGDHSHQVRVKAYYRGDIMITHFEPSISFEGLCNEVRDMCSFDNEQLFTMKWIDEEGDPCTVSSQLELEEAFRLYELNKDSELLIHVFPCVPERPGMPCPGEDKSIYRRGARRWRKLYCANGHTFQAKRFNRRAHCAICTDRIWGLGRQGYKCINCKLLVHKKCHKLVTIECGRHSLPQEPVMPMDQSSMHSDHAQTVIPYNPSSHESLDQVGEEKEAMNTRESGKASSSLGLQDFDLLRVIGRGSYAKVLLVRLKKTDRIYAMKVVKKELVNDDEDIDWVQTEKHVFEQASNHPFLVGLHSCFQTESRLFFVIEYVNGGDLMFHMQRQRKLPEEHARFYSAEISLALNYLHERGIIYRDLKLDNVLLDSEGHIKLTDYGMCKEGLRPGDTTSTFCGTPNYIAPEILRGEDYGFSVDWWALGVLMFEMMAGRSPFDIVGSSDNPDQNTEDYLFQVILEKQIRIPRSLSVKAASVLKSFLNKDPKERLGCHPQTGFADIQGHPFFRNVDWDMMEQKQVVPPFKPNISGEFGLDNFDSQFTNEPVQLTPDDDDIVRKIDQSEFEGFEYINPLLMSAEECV

FLT3 ITD/D835V = FLT3 ITD/D835V (Homo sapiens, UniProt P36888, D835V/ITD); assay: KdELECT binding assay
AURKA = molecular target: T1, AURKA (Homo sapiens, UniProt O14965); assay: KdELECT binding assay
T1 construct: purchased Eurofins DiscoverX
T1 sequence (O14965 whole entry): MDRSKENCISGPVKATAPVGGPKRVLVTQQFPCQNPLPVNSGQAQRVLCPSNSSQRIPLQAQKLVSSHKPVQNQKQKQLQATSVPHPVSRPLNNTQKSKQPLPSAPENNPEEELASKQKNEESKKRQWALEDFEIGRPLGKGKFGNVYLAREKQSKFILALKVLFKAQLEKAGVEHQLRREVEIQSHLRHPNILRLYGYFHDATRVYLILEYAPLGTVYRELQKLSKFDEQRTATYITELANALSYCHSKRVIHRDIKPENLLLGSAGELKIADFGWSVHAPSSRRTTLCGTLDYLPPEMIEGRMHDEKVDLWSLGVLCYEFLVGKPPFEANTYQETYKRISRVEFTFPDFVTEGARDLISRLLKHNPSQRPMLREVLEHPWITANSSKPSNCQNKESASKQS

MAPKAPK3 = MAPKAPK3 (Homo sapiens, UniProt Q16644); assay: KiNativ, OCI cells live cell; assay type: cell-based; conditions: 2 h, labeling site ATP Loop, peptide […]
Chain of MAPKAPK3 (Q16644 whole entry): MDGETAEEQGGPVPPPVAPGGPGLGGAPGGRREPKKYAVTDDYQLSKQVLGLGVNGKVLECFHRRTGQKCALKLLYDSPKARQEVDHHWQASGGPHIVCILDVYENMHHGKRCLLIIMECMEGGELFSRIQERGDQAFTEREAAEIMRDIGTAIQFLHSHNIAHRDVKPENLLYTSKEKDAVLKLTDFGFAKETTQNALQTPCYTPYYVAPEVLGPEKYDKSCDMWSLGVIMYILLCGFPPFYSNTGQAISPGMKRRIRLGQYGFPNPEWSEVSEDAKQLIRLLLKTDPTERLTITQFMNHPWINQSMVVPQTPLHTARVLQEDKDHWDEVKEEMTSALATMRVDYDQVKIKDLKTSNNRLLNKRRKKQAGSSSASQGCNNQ

PCTAIRE2, PCTAIRE3 = assay: KiNativ, OCI cells live cell; assay type: cell-based, human; conditions: labeling site Lys1, peptide SKLTENLVALKEIR
SNRK = SNRK (Homo sapiens, UniProt Q9NRH2); assay: KiNativ, OCI cells live cell; assay type: cell-based; conditions: 2 h, labeling site Lys1, peptide […]
Chain of SNRK (Q9NRH2 whole entry): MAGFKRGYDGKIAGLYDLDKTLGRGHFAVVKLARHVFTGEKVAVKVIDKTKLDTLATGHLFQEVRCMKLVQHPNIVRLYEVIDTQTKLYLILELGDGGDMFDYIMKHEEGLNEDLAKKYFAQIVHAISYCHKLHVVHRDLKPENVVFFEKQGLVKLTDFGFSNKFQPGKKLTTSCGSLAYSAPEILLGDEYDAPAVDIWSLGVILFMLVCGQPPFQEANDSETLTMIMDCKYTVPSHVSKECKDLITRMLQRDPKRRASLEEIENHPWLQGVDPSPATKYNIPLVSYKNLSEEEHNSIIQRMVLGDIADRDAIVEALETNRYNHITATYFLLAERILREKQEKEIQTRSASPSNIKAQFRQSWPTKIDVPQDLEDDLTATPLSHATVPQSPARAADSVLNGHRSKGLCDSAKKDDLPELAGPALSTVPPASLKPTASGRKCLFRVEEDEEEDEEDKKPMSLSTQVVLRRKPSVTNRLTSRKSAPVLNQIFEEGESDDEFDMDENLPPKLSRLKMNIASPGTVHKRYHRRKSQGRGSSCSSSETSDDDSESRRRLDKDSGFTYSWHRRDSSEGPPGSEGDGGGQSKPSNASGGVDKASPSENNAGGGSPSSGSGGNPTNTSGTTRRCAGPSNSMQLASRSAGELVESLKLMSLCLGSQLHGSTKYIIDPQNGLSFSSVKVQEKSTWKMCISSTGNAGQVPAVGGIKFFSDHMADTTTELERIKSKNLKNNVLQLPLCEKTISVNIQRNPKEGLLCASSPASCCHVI

HS5 human MSCs = assay: MTT viability assay of stromal cells; assay type: cell-based
Experimental: Cell viability of primary samples
HS5-GFP human bone marrow stromal cells were plated and cultured for 72 hours to near confluence.
MOLM13 cells were then seeded onto HS5-GFP cells to establish a co-culture. Twenty-four hours later, cells were treated with increasing concentrations of drug for an additional 72 hours. MOLM13 and HS5-GFP cells were then separated and MTT assay s were performed for cell viability assessment of each cell population.
For murine or human primary AML cells, 100,000 cells/well were plated in a 96-well plate and treated with increasing concentrations of drug. Cell viability, via trypan blue, was measured every 24 hours. If the viability fell below 50% or at 72 hours of treatment, whichever came earlier, cell viability of each plate was measured via CellTiter-Glo. Primary human AML cells were obtained from the OSUCCC Leukemia Tissue Bank Shared […]
For primary human fibroblasts, cells were plated at 10,000 cells/well in a 96-well plate and cultured for 24 hours. After 24 hours, cells were treated with drug for 72 hours. A MTT assay was performed to assess cell […]
Primary AML samples were analyzed by targeted gene sequencing of 80 genes, as previously described (1). Samples were pooled and analyzed on a MiSeq system using the Illuminia MiSeq Reagent Kit v3. Ill umina Isis Banded Smith Waterman aligner and hg19 genome were used to align the sequences. […]

RSK1 domain2 = molecular target: T2, RSK1 domain2 (Homo sapiens, UniProt Q15418); assay: KiNativ, OCI cells live cell; assay type: cell-based; conditions: 2 h, labeling site Lys2, peptide […]
T2 construct: RSK1 domain2

PAN3 = molecular target: T3, PAN3 (Homo sapiens, UniProt Q58A45); assay: KiNativ, OCI cells live cell; assay type: cell-based; conditions: 2 h, labeling site ATP
T3 sequence (Q58A45 1-887): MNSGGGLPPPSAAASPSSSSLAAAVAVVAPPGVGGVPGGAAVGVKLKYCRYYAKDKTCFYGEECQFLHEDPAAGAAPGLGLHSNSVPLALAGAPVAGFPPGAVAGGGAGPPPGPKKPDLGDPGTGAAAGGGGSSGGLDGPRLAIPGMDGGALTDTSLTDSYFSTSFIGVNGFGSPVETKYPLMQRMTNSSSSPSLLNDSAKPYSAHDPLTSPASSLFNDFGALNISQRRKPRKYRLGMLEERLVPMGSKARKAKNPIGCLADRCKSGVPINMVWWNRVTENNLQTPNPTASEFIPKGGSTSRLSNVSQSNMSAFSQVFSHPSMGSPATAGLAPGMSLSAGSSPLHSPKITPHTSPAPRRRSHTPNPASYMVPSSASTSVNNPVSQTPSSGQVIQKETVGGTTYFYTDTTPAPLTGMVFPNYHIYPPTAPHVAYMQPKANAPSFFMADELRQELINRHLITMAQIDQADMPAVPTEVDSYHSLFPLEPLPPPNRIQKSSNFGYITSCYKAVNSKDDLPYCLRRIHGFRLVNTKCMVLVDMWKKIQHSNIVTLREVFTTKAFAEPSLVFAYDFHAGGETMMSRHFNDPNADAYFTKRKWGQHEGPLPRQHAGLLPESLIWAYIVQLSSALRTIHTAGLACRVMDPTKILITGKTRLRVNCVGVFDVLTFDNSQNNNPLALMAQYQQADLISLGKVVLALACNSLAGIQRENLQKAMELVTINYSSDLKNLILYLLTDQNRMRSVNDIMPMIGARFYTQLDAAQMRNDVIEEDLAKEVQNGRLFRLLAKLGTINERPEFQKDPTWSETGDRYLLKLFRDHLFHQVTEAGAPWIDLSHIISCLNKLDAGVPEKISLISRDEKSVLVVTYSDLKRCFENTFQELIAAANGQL

JAK3 = molecular target: T4, JAK3 (Homo sapiens, UniProt P52333); assay: KdELECT binding assay
T4 construct: purchased Eurofins DiscoverX

Chain of p38a (Q16539 whole entry): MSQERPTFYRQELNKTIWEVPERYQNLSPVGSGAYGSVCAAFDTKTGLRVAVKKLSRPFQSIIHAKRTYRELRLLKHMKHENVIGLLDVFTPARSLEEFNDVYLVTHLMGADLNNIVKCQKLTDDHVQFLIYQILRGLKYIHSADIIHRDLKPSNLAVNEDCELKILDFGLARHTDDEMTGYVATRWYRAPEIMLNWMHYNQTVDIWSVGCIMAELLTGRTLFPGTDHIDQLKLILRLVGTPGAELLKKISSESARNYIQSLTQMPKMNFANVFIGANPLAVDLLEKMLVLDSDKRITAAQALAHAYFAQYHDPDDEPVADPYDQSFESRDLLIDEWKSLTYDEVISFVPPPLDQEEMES
Chain of TLK2 (Q86UE8 whole entry): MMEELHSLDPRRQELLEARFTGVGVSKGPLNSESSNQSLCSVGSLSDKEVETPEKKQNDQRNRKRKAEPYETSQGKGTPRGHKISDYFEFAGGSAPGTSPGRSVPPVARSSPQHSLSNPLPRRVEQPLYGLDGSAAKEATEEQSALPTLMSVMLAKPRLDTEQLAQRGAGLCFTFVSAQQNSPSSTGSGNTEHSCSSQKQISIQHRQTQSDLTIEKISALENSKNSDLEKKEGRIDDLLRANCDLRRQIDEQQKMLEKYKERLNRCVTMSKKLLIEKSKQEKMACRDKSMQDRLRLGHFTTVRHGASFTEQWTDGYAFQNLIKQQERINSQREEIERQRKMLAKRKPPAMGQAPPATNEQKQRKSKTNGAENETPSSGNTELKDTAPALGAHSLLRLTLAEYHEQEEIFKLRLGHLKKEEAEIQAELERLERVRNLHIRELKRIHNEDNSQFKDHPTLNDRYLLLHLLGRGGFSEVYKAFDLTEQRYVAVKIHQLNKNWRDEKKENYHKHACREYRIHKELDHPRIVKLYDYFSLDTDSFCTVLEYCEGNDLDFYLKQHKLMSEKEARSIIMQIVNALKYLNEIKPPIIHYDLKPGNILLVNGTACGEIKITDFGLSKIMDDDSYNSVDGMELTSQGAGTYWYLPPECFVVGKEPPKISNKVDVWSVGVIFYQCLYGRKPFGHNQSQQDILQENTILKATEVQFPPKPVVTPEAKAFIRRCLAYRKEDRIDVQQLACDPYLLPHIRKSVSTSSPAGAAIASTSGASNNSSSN

`CN1CCN(Cc2ccc(Nc3ncc(Cl)c(Nc4ccccc4S(=O)(=O)N(C)C)n3)cc2)CC1` [TP-0903] was tested, and the Inhibition (p38a; labeling site Lys2, peptide DLKPSNLAVNEDCELK) was -2.7%, the Inhibition (p38a; labeling site Other, peptide QELNKTIWEVPER) was 5.6% and the inhibition at 0.1 µM (TLK2; labeling site Lys1, peptide YVAVKIHQLNK) was -7.2%. It also gave an inhibition at 0.1 µM (TLK2; labeling site Lys2, peptide YLNEIKPPIIHYDLKPGNILLVNGTACGEIK) of -3.1%, an Inhibition [1] of 4.2% and an inhibition at 0.1 µM (TEC) of 31.9%. For the same compound, the inhibition at 0.1 µM (LYN; labeling site Activation Loop, peptide EGAKFPIKWTAPEAINFGCFTIK) was 19.1%, the inhibition at 0.1 µM (LYN; labeling site Lys1, peptide VAVKTLKPGTMSVQAFLEEANLMK) was 17.6% and the inhibition at 0.1 µM (PKCi; labeling site Lys1, peptide IYAMKVVK) was 9.2%. It also gave an inhibition at 0.1 µM (PKCi; labeling site Lys2, peptide DLKLDNVLLDSEGHIK) of 8.9%, a Kd (FLT3 ITD/D835V) of 0.79 nM and a Kd (AURKA) of less than 5 nM. For the same compound, the inhibition at 0.1 µM (MAPKAPK3) was -28.5%, the Inhibition (PCTAIRE2, PCTAIRE3) was 89.6% and the inhibition at 0.1 µM (SNRK) was 1%. The “Concentrations not cytotoxic to HS5 human MSCs” value (HS5 human MSCs) was less than 250 nM, the inhibition at 0.1 µM (RSK1 domain2) was 8.6% and the inhibition at 0.1 µM (PAN3; peptide IQKSSNFGYITSCYK) was -8.4%. The inhibition at 0.1 µM (PAN3; peptide VMDPTKILITGK) was -9.4% and the Kd (JAK3) was less than 5 nM.
